Source: ChEMBL document CHEMBL3588844, “Discovery of A-893, A New Cell-Active Benzoxazinone Inhibitor of Lysine Methyltransferase SMYD2” (ACS Med Chem Lett, 2015)
One block for each compound: values may come before it. Calls of active or inactive are those of the source. The calls are words filed in the database; no cut-off is given here.

Columns and labels:
[1] = target: N-lysine methyltransferase SMYD2 (Homo sapiens, UniProt Q9NRG4)
[2] = target: Histone-lysine N-methyltransferase SUV39H2 (Homo sapiens) (UniProt Q9H5I1); assay: Inhibition of SUV39H2 (unknown origin) assessed as incorporation of tritium labeled methyl group from [3H]-SAM to substrate at 1 uM after 1 hr by scintillation proximity assay relative to control
Sequence of Histone-lysine N-methyltransferase SUV39H2 (Homo sapiens) (Q9H5I1 whole entry): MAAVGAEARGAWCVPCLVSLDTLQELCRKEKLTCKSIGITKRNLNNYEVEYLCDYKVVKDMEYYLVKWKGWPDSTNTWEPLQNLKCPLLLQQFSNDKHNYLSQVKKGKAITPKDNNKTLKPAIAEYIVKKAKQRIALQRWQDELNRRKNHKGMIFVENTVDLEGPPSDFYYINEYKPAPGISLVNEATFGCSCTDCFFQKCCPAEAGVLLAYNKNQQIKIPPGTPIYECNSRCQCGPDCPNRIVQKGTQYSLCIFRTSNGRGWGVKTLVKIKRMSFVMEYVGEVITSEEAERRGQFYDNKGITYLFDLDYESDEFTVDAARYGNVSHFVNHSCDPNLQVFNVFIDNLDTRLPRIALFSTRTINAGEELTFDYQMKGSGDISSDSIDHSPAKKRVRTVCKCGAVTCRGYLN

[3] = target: Histone-lysine N-methyltransferase SETD2 (Homo sapiens) (UniProt Q9BYW2); assay: Inhibition of SETD2 (unknown origin) assessed as incorporation of tritium labeled methyl group from [3H]-SAM to substrate at 1 uM after 1 hr by scintillation proximity assay relative to control
[4] = target: PRMT5/MEP50 complex (Homo sapiens) (UniProt O14744+Q9BQA1); assay: Inhibition of PRMT5-MEP50 complex (unknown origin) assessed as incorporation of tritium labeled methyl group from [3H]-SAM to substrate at 1 uM after 1 hr by scintillation proximity assay relative to control; assay type: protein-complex assay
[5] = target: Histone-lysine N-methyltransferase SETD7 (Homo sapiens) (UniProt Q8WTS6); assay: Inhibition of SETD7 (unknown origin) assessed as incorporation of tritium labeled methyl group from [3H]-SAM to substrate at 1 uM after 1 hr by scintillation proximity assay relative to control
[6] = target: Histone-lysine N-methyltransferase EHMT2 (Homo sapiens) (UniProt Q96KQ7); assay: Inhibition of G9a (unknown origin) assessed as incorporation of tritium labeled methyl group from [3H]-SAM to substrate at 1 uM after 1 hr by scintillation proximity assay relative to control
[7] = target: Histone-lysine N-methyltransferase SUV39H2 (Homo sapiens) (UniProt Q9H5I1); assay: Inhibition of SUV39H2 (unknown origin) assessed as incorporation of tritium labeled methyl group from [3H]-SAM to substrate at 10 to 50 uM after 1 hr by scintillation proximity assay relative to control
[8] = target: Histone-lysine N-methyltransferase KMT5B (Homo sapiens) (UniProt Q4FZB7); assay: Inhibition of SUV420H1 (unknown origin) assessed as incorporation of tritium labeled methyl group from [3H]-SAM to substrate at 1 uM after 1 hr by scintillation proximity assay relative to control
[9] = target: Protein arginine N-methyltransferase 3 (Homo sapiens) (UniProt O60678); assay: Inhibition of PRMT3 (unknown origin) assessed as incorporation of tritium labeled methyl group from [3H]-SAM to substrate at 10 to 50 uM after 1 hr by scintillation proximity assay relative to control
Sequence of Protein arginine N-methyltransferase 3 (Homo sapiens) (O60678 2-531 limits assumed): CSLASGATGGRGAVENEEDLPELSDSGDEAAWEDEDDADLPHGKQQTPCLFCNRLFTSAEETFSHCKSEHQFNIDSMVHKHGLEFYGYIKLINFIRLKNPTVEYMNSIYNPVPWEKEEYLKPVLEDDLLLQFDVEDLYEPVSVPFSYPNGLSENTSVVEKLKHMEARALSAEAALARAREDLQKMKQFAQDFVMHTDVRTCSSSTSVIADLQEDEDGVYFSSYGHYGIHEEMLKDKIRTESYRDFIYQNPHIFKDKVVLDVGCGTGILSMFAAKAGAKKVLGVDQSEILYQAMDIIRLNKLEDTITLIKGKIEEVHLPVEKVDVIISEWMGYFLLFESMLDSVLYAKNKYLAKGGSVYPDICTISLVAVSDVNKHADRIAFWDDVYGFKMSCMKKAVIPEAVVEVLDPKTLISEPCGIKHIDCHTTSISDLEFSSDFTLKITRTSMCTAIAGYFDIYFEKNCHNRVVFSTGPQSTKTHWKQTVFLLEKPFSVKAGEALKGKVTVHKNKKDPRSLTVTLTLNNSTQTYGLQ

[10] = target: DNA (cytosine-5)-methyltransferase 1 (Homo sapiens) (UniProt P26358); assay: Inhibition of DNMT1 (unknown origin) assessed as incorporation of tritium labeled methyl group from [3H]-SAM to dsDNA substrate at 1 uM after 1 hr by scintillation proximity assay relative to control
[11] = target: Protein arginine N-methyltransferase 7 (Homo sapiens) (UniProt Q9NVM4); assay: Inhibition of PRMT7 (unknown origin) assessed as incorporation of tritium labeled methyl group from [3H]-SAM to substrate at 1 uM after 1 hr by scintillation proximity assay relative to control
Sequence of Protein arginine N-methyltransferase 7 (Homo sapiens) (Q9NVM4 whole entry): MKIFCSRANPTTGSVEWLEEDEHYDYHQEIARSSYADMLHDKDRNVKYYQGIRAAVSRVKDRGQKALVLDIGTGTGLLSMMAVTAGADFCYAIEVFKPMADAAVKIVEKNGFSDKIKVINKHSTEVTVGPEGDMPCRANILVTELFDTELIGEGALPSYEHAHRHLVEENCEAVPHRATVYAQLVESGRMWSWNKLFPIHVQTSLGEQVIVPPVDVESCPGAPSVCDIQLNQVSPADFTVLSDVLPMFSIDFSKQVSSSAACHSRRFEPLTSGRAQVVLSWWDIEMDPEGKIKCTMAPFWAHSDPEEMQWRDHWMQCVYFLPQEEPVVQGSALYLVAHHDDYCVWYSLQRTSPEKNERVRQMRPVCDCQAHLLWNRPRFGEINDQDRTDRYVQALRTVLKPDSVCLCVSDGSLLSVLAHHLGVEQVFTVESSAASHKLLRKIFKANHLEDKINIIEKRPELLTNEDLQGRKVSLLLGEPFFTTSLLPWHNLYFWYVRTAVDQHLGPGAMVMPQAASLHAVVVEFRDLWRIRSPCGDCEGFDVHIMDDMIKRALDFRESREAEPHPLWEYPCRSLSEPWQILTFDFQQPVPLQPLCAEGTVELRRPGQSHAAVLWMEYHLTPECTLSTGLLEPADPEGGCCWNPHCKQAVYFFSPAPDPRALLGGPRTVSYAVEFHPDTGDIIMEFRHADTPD

[12] = target: Protein arginine N-methyltransferase 3 (Homo sapiens) (UniProt O60678); assay: Inhibition of PRMT3 (unknown origin) assessed as incorporation of tritium labeled methyl group from [3H]-SAM to substrate at 1 uM after 1 hr by scintillation proximity assay relative to control
[13] = target: Histone-lysine N-methyltransferase SMYD3 (Homo sapiens) (UniProt Q9H7B4); assay: Inhibition of SMYD3 (unknown origin) assessed as incorporation of tritium labeled methyl group from [3H]-SAM to substrate at 1 uM after 1 hr by scintillation proximity assay relative to control
Sequence of Histone-lysine N-methyltransferase SMYD3 (Homo sapiens) (Q9H7B4 whole entry): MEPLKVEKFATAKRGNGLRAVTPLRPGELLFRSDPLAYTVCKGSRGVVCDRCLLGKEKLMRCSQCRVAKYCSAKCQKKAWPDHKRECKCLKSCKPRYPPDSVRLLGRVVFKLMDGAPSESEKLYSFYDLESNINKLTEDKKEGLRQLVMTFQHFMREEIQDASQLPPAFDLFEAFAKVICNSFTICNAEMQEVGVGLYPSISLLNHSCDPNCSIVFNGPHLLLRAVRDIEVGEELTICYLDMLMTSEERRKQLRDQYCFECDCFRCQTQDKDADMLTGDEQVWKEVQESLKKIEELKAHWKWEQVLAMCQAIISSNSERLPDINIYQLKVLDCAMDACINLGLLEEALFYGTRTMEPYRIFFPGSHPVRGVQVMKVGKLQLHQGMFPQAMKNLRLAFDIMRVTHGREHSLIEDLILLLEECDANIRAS

[14] = target: Histone-lysine N-methyltransferase EZH2 (Homo sapiens) (UniProt Q15910); assay: Inhibition of EZH2 trimeric complex (unknown origin) assessed as incorporation of tritium labeled methyl group from [3H]-SAM to substrate at 1 uM after 1 hr by scintillation proximity assay relative to control
[15] = target: DNMT3B-DNMT3L complex (Homo sapiens) (UniProt Q9UBC3+Q9UJW3); assay: Inhibition of DNMT3B/3L (unknown origin) at 1 uM after 1 hr by filter-based assay; assay type: protein-complex assay
Sequence of DNMT3B-DNMT3L complex (Homo sapiens) (Q9UJW3 whole entry, looked up, other chains not shown): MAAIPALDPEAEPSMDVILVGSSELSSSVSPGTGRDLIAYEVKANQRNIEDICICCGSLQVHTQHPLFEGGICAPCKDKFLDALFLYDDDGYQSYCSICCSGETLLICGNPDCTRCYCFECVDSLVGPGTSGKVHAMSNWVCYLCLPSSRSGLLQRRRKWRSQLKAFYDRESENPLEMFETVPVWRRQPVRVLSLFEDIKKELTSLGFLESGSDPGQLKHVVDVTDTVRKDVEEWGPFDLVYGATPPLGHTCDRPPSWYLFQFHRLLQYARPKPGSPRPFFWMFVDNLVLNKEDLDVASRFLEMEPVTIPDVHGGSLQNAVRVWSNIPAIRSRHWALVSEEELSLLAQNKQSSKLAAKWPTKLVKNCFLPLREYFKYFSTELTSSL

[16] = target: Protein arginine N-methyltransferase 7 (Homo sapiens) (UniProt Q9NVM4); assay: Inhibition of PRMT7 (unknown origin) assessed as incorporation of tritium labeled methyl group from [3H]-SAM to substrate at 10 to 50 uM after 1 hr by scintillation proximity assay relative to control
[17] = target: Protein N-lysine methyltransferase METTL21D (Homo sapiens) (UniProt Q9H867); assay: Inhibition of METTL21D (unknown origin) assessed as incorporation of tritium labeled methyl group from [3H]-SAM to substrate at 1 uM after 1 hr by scintillation proximity assay relative to control
Sequence of Protein N-lysine methyltransferase METTL21D (Homo sapiens) (Q9H867 whole entry): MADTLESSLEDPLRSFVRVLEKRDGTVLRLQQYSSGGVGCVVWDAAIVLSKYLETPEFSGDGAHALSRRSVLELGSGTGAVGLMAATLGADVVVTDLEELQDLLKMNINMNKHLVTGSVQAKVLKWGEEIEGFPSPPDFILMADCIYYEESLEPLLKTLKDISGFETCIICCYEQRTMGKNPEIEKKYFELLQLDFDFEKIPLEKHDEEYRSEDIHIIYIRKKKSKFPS

[18] = target: Protein arginine N-methyltransferase 6 (Homo sapiens) (UniProt Q96LA8); assay: Inhibition of PRMT6 (unknown origin) assessed as incorporation of tritium labeled methyl group from [3H]-SAM to substrate at 1 uM after 1 hr by scintillation proximity assay relative to control
[19] = target: Protein arginine N-methyltransferase 8 (Homo sapiens) (UniProt Q9NR22); assay: Inhibition of PRMT8 (unknown origin) assessed as incorporation of tritium labeled methyl group from [3H]-SAM to substrate at 1 uM after 1 hr by scintillation proximity assay relative to control
[20] = target: Histone-lysine N-methyltransferase ASH1L (Homo sapiens) (UniProt Q9NR48); assay: Inhibition of ASH1L (unknown origin) at 1 uM after 1 hr by filter-based assay
A549 [21] = assay: Effect on p53 protein level in human A549 cells at 10 uM after 18 hrs; assay type: functional, cell-based
[22] = target: Histone-lysine N-methyltransferase EHMT1 (Homo sapiens) (UniProt Q9H9B1); assay: Inhibition of EHMT1 (unknown origin) assessed as incorporation of tritium labeled methyl group from [3H]-SAM to substrate at 1 uM after 1 hr by scintillation proximity assay relative to control
Sequence of Histone-lysine N-methyltransferase EHMT1 (Homo sapiens) (Q9H9B1 whole entry): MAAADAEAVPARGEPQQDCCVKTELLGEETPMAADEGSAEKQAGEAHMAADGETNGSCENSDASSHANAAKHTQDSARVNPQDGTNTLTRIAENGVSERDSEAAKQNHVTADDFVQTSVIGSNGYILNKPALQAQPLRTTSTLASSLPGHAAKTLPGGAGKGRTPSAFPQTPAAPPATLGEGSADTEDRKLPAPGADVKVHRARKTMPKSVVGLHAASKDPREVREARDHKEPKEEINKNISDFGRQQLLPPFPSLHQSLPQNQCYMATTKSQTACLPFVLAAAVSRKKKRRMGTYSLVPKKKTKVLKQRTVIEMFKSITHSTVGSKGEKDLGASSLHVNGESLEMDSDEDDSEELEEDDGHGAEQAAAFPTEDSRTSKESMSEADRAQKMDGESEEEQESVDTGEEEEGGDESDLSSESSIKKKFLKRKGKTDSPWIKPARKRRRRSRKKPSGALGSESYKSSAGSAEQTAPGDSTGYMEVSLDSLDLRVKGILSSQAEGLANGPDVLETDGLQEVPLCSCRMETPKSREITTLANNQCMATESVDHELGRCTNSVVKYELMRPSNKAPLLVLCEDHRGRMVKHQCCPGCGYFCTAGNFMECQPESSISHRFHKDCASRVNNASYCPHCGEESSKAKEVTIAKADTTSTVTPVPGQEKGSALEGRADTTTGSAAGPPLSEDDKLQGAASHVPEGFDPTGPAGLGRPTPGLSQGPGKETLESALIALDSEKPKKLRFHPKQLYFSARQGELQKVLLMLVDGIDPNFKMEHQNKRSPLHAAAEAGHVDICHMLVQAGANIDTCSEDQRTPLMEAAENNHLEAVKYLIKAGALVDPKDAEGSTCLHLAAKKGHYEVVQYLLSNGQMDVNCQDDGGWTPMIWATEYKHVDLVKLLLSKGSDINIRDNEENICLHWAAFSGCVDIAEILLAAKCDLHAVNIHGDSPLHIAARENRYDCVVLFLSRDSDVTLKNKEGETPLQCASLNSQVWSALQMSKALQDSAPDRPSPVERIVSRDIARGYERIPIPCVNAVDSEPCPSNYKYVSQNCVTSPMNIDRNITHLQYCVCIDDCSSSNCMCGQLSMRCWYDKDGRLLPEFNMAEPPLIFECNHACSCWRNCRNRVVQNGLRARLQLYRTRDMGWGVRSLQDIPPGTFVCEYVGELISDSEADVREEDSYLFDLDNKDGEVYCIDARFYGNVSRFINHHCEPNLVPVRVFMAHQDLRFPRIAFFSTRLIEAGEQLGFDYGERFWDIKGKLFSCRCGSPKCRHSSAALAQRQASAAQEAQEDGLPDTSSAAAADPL

[23] = target: Histone-lysine N-methyltransferase SETDB1 (Homo sapiens) (UniProt Q15047); assay: Inhibition of SETDB1 (unknown origin) assessed as incorporation of tritium labeled methyl group from [3H]-SAM to substrate at 1 uM after 1 hr by scintillation proximity assay relative to control
[24] = target: Histone-lysine N-methyltransferase 2A (Homo sapiens) (UniProt Q03164); assay: Inhibition of MLL1 trimeric complex (unknown origin) assessed as incorporation of tritium labeled methyl group from [3H]-SAM to substrate at 1 uM after 1 hr by scintillation proximity assay relative to control
[25] = target: RNA 5'-monophosphate methyltransferase (Homo sapiens) (UniProt Q7Z5W3); assay: Inhibition of BCDIN3D (unknown origin) assessed as incorporation of tritium labeled methyl group from [3H]-SAM to substrate at 1 uM after 1 hr by scintillation proximity assay relative to control
[26] = target: Histone-lysine N-methyltransferase, H3 lysine-79 specific (Homo sapiens) (UniProt Q8TEK3); assay: Inhibition of DOT1L (unknown origin) at 1 uM after 1 hr by filter-based assay
[27] = target: Protein N-lysine methyltransferase METTL21A (Homo sapiens) (UniProt Q8WXB1); assay: Inhibition of METTL21A (unknown origin) assessed as incorporation of tritium labeled methyl group from [3H]-SAM to substrate at 1 uM after 1 hr by scintillation proximity assay relative to control
Sequence of Protein N-lysine methyltransferase METTL21A (Homo sapiens) (Q8WXB1 whole entry): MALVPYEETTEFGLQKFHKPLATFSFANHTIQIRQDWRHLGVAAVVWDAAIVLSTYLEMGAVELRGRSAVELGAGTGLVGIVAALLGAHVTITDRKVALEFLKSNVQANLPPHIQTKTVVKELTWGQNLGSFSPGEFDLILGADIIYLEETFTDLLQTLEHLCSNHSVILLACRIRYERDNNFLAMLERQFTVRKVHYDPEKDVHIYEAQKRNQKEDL

[28] = target: Histone-lysine N-methyltransferase NSD3 (Homo sapiens) (UniProt Q9BZ95); assay: Inhibition of NSD3 (unknown origin) at 1 uM after 1 hr by filter-based assay
[29] = target: N-lysine methyltransferase KMT5A (Homo sapiens) (UniProt Q9NQR1); assay: Inhibition of SETD8 (unknown origin) assessed as incorporation of tritium labeled methyl group from [3H]-SAM to substrate at 1 uM after 1 hr by scintillation proximity assay relative to control
[30] = target: Histone-lysine N-methyltransferase SMYD3 (Homo sapiens) (UniProt Q9H7B4); assay: Inhibition of SMYD3 (unknown origin) assessed as incorporation of tritium labeled methyl group from [3H]-SAM to substrate at 10 to 50 uM after 1 hr by scintillation proximity assay relative to control
[31] = target: DNMT3A2/3L complex (Homo sapiens) (UniProt Q9Y6K1+Q9UJW3); assay: Inhibition of DNMT3A/3L (unknown origin) at 1 uM after 1 hr by filter-based assay; assay type: protein-complex assay
[32] = target: Histone-lysine N-methyltransferase EZH1 (Homo sapiens) (UniProt Q92800); assay: Inhibition of EZH1 pentameric complex (unknown origin) assessed as incorporation of tritium labeled methyl group from [3H]-SAM to substrate at 1 uM after 1 hr by scintillation proximity assay relative to control
[33] = target: Histone-lysine N-methyltransferase, H3 lysine-36 specific (Homo sapiens) (UniProt Q96L73); assay: Inhibition of NSD1 (unknown origin) at 1 uM after 1 hr by filter-based assay
[34] = target: Histone-lysine N-methyltransferase NSD2 (Homo sapiens) (UniProt O96028); assay: Inhibition of NSD2 (unknown origin) at 1 uM after 1 hr by filter-based assay
[35] = target: Protein arginine N-methyltransferase 1 (Homo sapiens) (UniProt Q99873); assay: Inhibition of PRMT1 (unknown origin) assessed as incorporation of tritium labeled methyl group from [3H]-SAM to substrate at 1 uM after 1 hr by scintillation proximity assay relative to control
Sequence of Protein arginine N-methyltransferase 1 (Homo sapiens) (Q99873 whole entry, looked up): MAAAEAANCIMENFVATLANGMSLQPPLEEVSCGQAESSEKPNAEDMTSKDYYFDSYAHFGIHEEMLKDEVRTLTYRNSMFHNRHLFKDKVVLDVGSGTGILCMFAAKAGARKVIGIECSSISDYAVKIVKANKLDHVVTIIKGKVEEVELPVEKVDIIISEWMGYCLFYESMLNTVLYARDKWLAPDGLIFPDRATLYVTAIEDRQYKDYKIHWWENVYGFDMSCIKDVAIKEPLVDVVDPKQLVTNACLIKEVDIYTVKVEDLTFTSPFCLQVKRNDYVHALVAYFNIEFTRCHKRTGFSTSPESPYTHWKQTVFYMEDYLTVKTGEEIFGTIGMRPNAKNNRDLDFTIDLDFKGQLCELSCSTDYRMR

[36] = target: Histone-lysine N-methyltransferase PRDM9 (Homo sapiens) (UniProt Q9NQV7); assay: Inhibition of PRDM9 (unknown origin) assessed as incorporation of tritium labeled methyl group from [3H]-SAM to substrate at 1 uM after 1 hr by scintillation proximity assay relative to control
[37] = target: Histone-lysine N-methyltransferase KMT5C (Homo sapiens) (UniProt Q86Y97); assay: Inhibition of SUV420H2 (unknown origin) at 1 uM after 1 hr by filter-based assay
A549 [38] = assay: Upregulation of p53 protein level in human A549 cells at 10 uM after 18 hrs relative to control; assay type: functional

Sequence of N-lysine methyltransferase SMYD2 (Q9NRG4 whole entry): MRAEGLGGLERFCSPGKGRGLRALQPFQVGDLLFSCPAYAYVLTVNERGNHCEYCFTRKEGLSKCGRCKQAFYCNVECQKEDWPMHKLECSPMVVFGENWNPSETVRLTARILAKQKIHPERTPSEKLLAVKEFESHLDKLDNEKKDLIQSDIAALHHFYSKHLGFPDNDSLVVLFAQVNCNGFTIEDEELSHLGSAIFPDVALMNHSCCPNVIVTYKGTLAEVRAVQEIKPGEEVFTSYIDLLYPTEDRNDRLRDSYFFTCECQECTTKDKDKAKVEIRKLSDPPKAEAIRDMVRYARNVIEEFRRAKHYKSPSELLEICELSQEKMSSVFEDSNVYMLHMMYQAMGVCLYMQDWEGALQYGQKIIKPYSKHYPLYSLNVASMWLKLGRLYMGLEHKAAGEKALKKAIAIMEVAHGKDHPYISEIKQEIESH

Structure (SMILES): O=C1COc2c(CCNCCN(C(=O)CCNCCc3ccc(Cl)c(Cl)c3)C3CCCCC3)ccc(O)c2N1
IC50 [1]: 0.23 µM
fold change (FC) (A549 [38]): >3

Structure (SMILES): O=C1COc2c(CCNCCN(C(=O)CCNCCc3ccccc3)C3CCC3)ccc(O)c2N1
IC50 [1]: 26 µM

Structure (SMILES): O=C1COc2c(CCNCCN(C(=O)CCNCc3ccc(Cl)c(Cl)c3)C3CCCCC3)ccc(O)c2N1
IC50 [1]: 3.1 µM

Structure (SMILES): O=C(CCNCCc1ccc(Cl)c(Cl)c1)N(CCNCCCN1CCCCC1)C1CCCCC1
IC50 [1]: 2.4 µM

Further lines, with some results ahead:

IC50 [1]: 5 µM
Structure (SMILES): O=C(CCNCCc1ccc(Cl)c(Cl)c1)N(CCNCCN1CCCC1)C1CCCCC1

IC50 [1]: 2.2 µM
Structure (SMILES): O=C1COc2c(CCNCCN(C(=O)CCNCCc3ccccc3)C3CCCC3)ccc(O)c2N1

IC50 [1]: 0.0056 µM
Structure (SMILES): O=C1COc2c(cccc2[C@H](O)CNCCN(C(=O)CCNCCc2ccc(Cl)c(Cl)c2)C2CCCCC2)N1

IC50 [1]: 1.4 µM
Structure (SMILES): O=C(CCNCCc1ccc(Cl)c(Cl)c1)N(CCNCCCN1CCCC1)C1CCCCC1

inhibition [2]: inactive
inhibition [3]: inactive
inhibition [4]: inactive
inhibition [5]: inactive
IC50 [1]: 0.0028 µM
inhibition [6]: inactive
inhibition [7]: 65%
inhibition [8]: inactive
inhibition [9]: 65%
inhibition [10]: inactive
inhibition [11]: inactive
inhibition [12]: inactive
inhibition [13]: inactive
inhibition [14]: inactive
inhibition [15]: inactive
inhibition [16]: 65%
inhibition [17]: inactive
inhibition [18]: inactive
inhibition [19]: inactive
inhibition [20]: inactive
inhibition [22]: inactive
inhibition [23]: inactive
inhibition [24]: inactive
inhibition [25]: inactive
inhibition [26]: inactive
inhibition [27]: inactive
inhibition [28]: inactive
inhibition [29]: inactive
inhibition [30]: 65%
inhibition [31]: inactive
inhibition [32]: inactive
inhibition [33]: inactive
inhibition [34]: inactive
inhibition [35]: inactive
inhibition [36]: inactive
inhibition [37]: inactive
Structure (SMILES): O=C1COc2c(cccc2[C@@H](O)CNCCN(C(=O)CCNCCc2ccc(Cl)c(Cl)c2)C2CCCCC2)N1
Activity (A549 [21]): inactive

IC50 [1]: 0.44 µM
Structure (SMILES): O=C1COc2c(CCNCCN(C(=O)CCNCCc3ccccc3)C3CCCCC3)ccc(O)c2N1
